According to PMC7816197 (Journal of Medicinal Chemistry, 2020):
One block for each compound: values may come before it.

Assays:
human NAPE-PLD = human NAPE-PLD (Homo sapiens, UniProt Q6IQ20); assay: NAPE-PLD PED6 surrogate substrate activity assay; format: biochemical; conditions: for fold increase in potency/activity: compared to 2; for fold drop in potency: compared to hit 2; for inhibitory activity in words: PED6 assay, human NAPE-PLD
HEK293 cells = conditions: cited from earlier work
Neuro-2a cells = conditions: cited from earlier work
[1] = system: brains of freely moving mice; conditions: cited from earlier work
[2] = not suited for in vivo use; cited from earlier work

Sequence of human NAPE-PLD (Q6IQ20 whole entry): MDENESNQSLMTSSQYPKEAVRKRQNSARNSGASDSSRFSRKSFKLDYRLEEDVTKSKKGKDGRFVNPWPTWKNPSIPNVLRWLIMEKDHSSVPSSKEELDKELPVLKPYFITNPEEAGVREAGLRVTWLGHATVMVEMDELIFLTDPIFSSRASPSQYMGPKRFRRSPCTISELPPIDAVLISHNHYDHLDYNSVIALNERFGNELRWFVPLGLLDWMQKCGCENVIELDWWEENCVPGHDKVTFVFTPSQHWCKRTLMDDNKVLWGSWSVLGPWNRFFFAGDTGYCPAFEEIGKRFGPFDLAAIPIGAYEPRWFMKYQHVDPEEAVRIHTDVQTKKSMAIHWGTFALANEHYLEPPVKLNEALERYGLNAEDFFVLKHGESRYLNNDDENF

Structure (SMILES): O=c1[nH]c(=O)c2cc(S(=O)(=O)Nc3ccc(-c4ccncc4)cc3)ccc2[nH]1 [ARN19874]
NAE levels (HEK293 cells): did not affect | NAPE levels (HEK293 cells): increase | IC50 (human NAPE-PLD): 54 µM

Structure (SMILES): O=C(NCC1CC1)c1cc(N2CC[C@H](O)C2)nc(N2CCC[C@@H](c3ccccc3)C2)n1 [Compound 1, N-(Cyclopropylmethyl)-6-((S)-3-hydroxypyrrolidin-1-yl)-2-((S)-3-phenylpiperidin-1-yl)pyrimidine-4-carboxamide]
NAE levels including anandamide (Neuro-2a cells): reduced | turnover of PED6 (human NAPE-PLD; at a dose of 10 μM, full efficacy): completely blocked | fold increase in potency/activity (human NAPE-PLD): 10 fold | anandamide levels in mouse brain ([1]; 30 mg/kg, intraperitoneal injection): decreased | NAE levels including anandamide ([1]; brains of freely moving mice): reduced

Structure (SMILES): CN(CC1CC1)C(=O)c1cc(N2CCOCC2)nc(N(C)CCc2ccccc2)n1 [Compound 7, N-(Cyclopropylmethyl)-N-methyl-2-(methyl(phenethyl)amino)-6-morpholinopyrimidine-4-carboxamide]
inhibitory activity in words (human NAPE-PLD): complete loss of potency

Structure (SMILES): CC(C)CNC(=O)c1cc(N2CCOCC2)nc(N(C)CCc2ccccc2)n1 [Compound 15, N-Isobutyl-2-(methyl(phenethyl)amino)-6-morpholinopyrimidine-4-carboxamide]
fold drop in potency (human NAPE-PLD): 10 fold

Structure (SMILES): CN(CCc1ccccc1)c1nc(NC(=O)CC2CC2)cc(N2CCOCC2)n1 [Compound 30, 2-Cyclopropyl-N-(2-(methyl(phenethyl)amino)-6-morpholinopyrimidin-4-yl)acetamide]
fold drop in potency (human NAPE-PLD): 10 fold

Structure (SMILES): CN(CCc1ccccc1)c1nc(C(=O)NCC2CC2)cc(N2CCCC(F)(F)C2)n1 [Compound 72, N-(Cyclopropylmethyl)-6-(3,3-difluoropiperidin-1-yl)-2-(methyl(phenethyl)amino)pyrimidine-4-carboxamide]
fold increase in potency/activity (human NAPE-PLD): 2 fold

Structure (SMILES): CN(C)c1cc(C(=O)NCC2CC2)nc(N(C)CCc2ccccc2)n1 [Compound 81, N-(Cyclopropylmethyl)-6-(dimethylamino)-2-(methyl(phenethyl)amino)pyrimidine-4-carboxamide]
fold increase in potency/activity (human NAPE-PLD): 2 fold

Structure (SMILES): CN(CCc1ccccc1)c1nc(C(=O)NCC2CC2)cc(N2CCCC2)n1 [Compound 87, N-(Cyclopropylmethyl)-2-(methyl(phenethyl)amino)-6-(pyrrolidin-1-yl)pyrimidine-4-carboxamide]
fold increase in potency/activity (human NAPE-PLD): ~4 fold

Structure (SMILES): O=C(NCC1CC1)c1cc(N2CC[C@@H](O)C2)nc(N2CCC[C@H](c3ccccc3)C2)n1 [Compound 107, N-(Cyclopropylmethyl)-6-((R)-3-hydroxypyrrolidin-1-yl)-2-((R)-3-phenylpiperidin-1-yl)pyrimidine-4-carboxamide]
fold-reduced activity (human NAPE-PLD; (R,R) enantiomer compared to 1): 3 fold

Structure (SMILES): Oc1c(Cl)cc(Cl)c(Cl)c1Cc1c(O)c(Cl)cc(Cl)c1Cl [hexachlorophene]
neurotoxicity [2]: neurotoxic effects

Structure (SMILES): C[C@H](CCC(=O)O)[C@H]1CC[C@H]2[C@@H]3CC[C@@H]4C[C@H](O)CC[C@]4(C)[C@H]3CC[C@]12C [lithocholic acid, reference compound]
inhibitory activity in words (human NAPE-PLD): not active

Now from value to compound:

fold increase in potency/activity (human NAPE-PLD): 2 fold
Structure (SMILES): O=C(NCC1CC1)c1cc(N2CCOCC2)nc(N2CCCC(c3ccccc3)C2)n1 (racemic) [Compound 62, (±)-N-(Cyclopropylmethyl)-6-morpholino-2-(3-phenylpiperidin-1-yl)pyrimidine-4-carboxamide]

fold increase in potency/activity (human NAPE-PLD): 2 fold
Structure (SMILES): O=C(NCC1CC1)c1cc(N2CCOCC2)nc(N2CCCC2Cc2ccccc2)n1 (racemic) [Compound 63, (±)-2-(2-Benzylpyrrolidin-1-yl)-N-(cyclopropylmethyl)-6-morpholinopyrimidine-4-carboxamide]

fold drop in potency (human NAPE-PLD): 10 fold
Structure (SMILES): CN(CCc1ccccc1)c1cc(N2CCOCC2)cc(C(=O)NCC2CC2)n1 [Compound 3, N-(Cyclopropylmethyl)-6-(methyl(phenethyl)amino)-4-morpholino-picolinamide]

inhibitory activity in words (human NAPE-PLD): completely inactive
Structure (SMILES): CN(CCc1ccccc1)c1nc(C(=O)NCC2CC2)nc(N2CCOCC2)n1 [Compound 6, N-(Cyclopropylmethyl)-4-(methyl(phenethyl)amino)-6-morpholino-1,3,5-triazine-2-carboxamide]

inhibitory activity in words (human NAPE-PLD): inactive
Structure (SMILES): O=C(NCC1CC1)c1cc(N2CCOCC2)nc(Cl)n1 [Compound 31, 2-Chloro-N-(cyclopropylmethyl)-6-morpholinopyrimidine-4-carboxamide]

inhibitory activity in words (human NAPE-PLD): inactive
Structure (SMILES): O=C(NCC1CC1)c1cc(N2CCOCC2)ncn1 [Compound 32, N-(Cyclopropylmethyl)-6-morpholinopyrimidine-4-carboxamide]

fold increase in potency/activity (human NAPE-PLD): 2 fold
Structure (SMILES): CC(C)N(CCc1ccccc1)c1nc(C(=O)NCC2CC2)cc(N2CCOCC2)n1 [Compound 55, N-(Cyclopropylmethyl)-2-(isopropyl(phenethyl)amino)-6-morpholinopyrimidine-4-carboxamide]
